The record followed here is US7354927B2, “6H-[1]benzopyrano[4,3-b]quinolines and their use as estrogenic agents” (Wyeth, priority 2004, dated 2008).

For one series, the target named is T1, human ERβ (Homo sapiens, UniProt Q92731).
T1 construct: made in house; host or cells: E. coli (crude lysate)
The experiment in a line: Competition with [3H]-17β-estradiol for binding to the ERβ ligand binding domain. The conditions noted are these: for IC50: E. coli lysate expressing human ERβ LBD, 2 nM [3H]-17β-estradiol, 5-15 hours at room temperature. The procedure:
(§1) Representative examples of the invention were evaluated for their ability to compete with 17β-estradiol for both ERα and ERβ. The test procedure used allows one to determine whether a particular compound binds to the estrogen receptor (and is therefore “estrogenic”) and whether there is selectivity for ERα or ERβ. […] The IC50 is defined as the concentration of compound that decreases total 17β-estradiol binding by 50%. The procedure used is briefly described. A crude lysate of E. coil expressing the estrogen receptor ligand binding domains (D, E, and F) of human ERα or ERβ was prepared. Both receptors and compounds were diluted in 1× Dulbecco's phosphate buffered saline (DPBS) supplemented with 1 mM ethylenediamine tetraacetic acid (EDTA). Using a high binding masked microtiter plate, 100 uL of receptor (1 uG/well) was combined with 2 nM [^3H]-17β-estradiol and various concentrations of compound. After between 5 and 15 hours at room temperature, the plates were washed with DPBS/1 mM EDTA and bound radioactivity determined by liquid scintillation counting.

For another series, the target named is T2, human ERα (Homo sapiens, UniProt P03372).
T2 construct: made in house; host or cells: E. coli (crude lysate)
T2 sequence (P03372 311-547 limits assumed): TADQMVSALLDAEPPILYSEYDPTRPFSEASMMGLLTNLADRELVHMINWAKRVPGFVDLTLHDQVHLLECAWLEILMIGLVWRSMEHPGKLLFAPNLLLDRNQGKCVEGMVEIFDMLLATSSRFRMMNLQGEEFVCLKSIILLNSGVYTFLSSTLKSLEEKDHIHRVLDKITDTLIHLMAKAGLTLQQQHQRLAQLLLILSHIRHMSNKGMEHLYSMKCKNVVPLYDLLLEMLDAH
The experiment in a line: Competition with [3H]-17β-estradiol for binding to the ERα ligand binding domain. The conditions noted are these: E. coli lysate expressing human ERα LBD; 2 nM [3H]-17β-estradiol; 5-15 hours at room temperature. As to the method:
as §1

T1 sequence (Q92731 264-498 limits assumed): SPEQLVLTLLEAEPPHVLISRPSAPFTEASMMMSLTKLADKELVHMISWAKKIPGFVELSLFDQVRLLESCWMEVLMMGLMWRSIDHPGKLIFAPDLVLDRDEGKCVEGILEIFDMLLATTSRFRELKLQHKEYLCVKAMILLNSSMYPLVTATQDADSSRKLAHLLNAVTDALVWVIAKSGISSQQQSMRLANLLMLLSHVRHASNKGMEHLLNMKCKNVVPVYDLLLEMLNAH

Take `C#Cc1c2c(nc3ccc(O)cc13)-c1ccc(O)cc1OC2` [Cpd 10, 3,9-DIHYDROXY-7-ETHYNYL-6H-CHROMENO[4,3-b]QUINOLINE]: the melting point was 220 °C (dec.). Besides, at human ERβ, the IC50 was determined as 37 nM and the “α/β receptor selectivity (ratio of ERα IC50 to ERβ IC50)” value is recorded as 3. In addition, the IC50 on human ERα amounted to 131 nM.
On the same counts, the results for `N#Cc1cccc(-c2c3c(nc4ccc(O)cc24)-c2ccc(O)cc2OC3)c1` [Cpd 19, 7-(3-CYANOPHENYL)-3,9-DIHYDROXY-6H-CHROMENO[4,3-b]QUINOLINE] are 275 °C (dec.), 150 nM, 8 and 1130 nM.
`Oc1ccc2c(c1)OCc1c-2nc2ccc(O)cc2c1Br` [Cpd 7, 7-BROMO-3,9-DIHYDROXY-6H-CHROMENO[4,3-b]QUINOLINE]: the melting point was 240 °C (dec.). Further, on human ERβ, the half-maximal inhibitory concentration (IC50) was determined as 3.6 nM and the “α/β receptor selectivity (ratio of ERα IC50 to ERβ IC50)” value is reported as 18. In addition, the IC50 at human ERα was 63 nM.
Regarding `COc1ccc2c(c1)OCc1c-2nc2ccc(OC)cc2c1Cl` [Cpd 4, 7-CHLORO-3,9-DIMETHOXY-6H-CHROMENO[4,3-b]QUINOLINE], the melting point fell in the range of 190 to 191 °C.
For the molecule `Oc1ccc2c(c1)OCc1c-2nc2ccc(O)cc2c1-c1ccc(C(F)(F)F)cc1` [Cpd 16, 3,9-DIHYDROXY-7-[4-(TRIFLUOROMETHYL)PHENYL]-6H-CHROMENO[4,3-b]QUINOLINE], the melting point is 175 to 177 °C (dec.). In addition, at human ERβ, the IC50 was found to be 137 nM and the “α/β receptor selectivity (ratio of ERα IC50 to ERβ IC50)” value was 44. This molecule also came in with an IC50 on human ERα of 6090 nM.
In the same order, the values of `C[Si](C)(C)C#Cc1c2c(nc3ccc(O)cc13)-c1ccc(O)cc1OC2` [Cpd 9, 3,9-DIHYDROXY-7-[(TRIMETHYLSILYL)ETHYNYL]-6H-CHROMENO[4,3-b]QUINOLINE] are 160 °C (dec.), 225 nM, 0.8 and 169 nM.
In the same order, the values of `Oc1ccc2c(c1)OCc1c-2nc2ccc(O)cc2c1-c1ccc(Cl)cc1` [Cpd 13, 7-(4-CHLOROPHENYL)-3,9-DIHYDROXY-6H-CHROMENO[4,3-b]QUINOLINE] are 215 to 218 °C (dec.), 160 nM, 19 and 3090 nM.
As to `COc1ccc2c(c1)OCc1c-2nc2ccc(OC)cc2c1Br` [Cpd 5, 7-BROMO-3,9-DIMETHOXY-6H-CHROMENO[4,3-b]QUINOLINE], the melting point is 196 to 197 °C.
On to `C=Cc1c2c(nc3ccc(O)cc13)-c1ccc(O)cc1OC2` [Cpd 8, 3,9-DIHYDROXY-7-VINYL-6H-CHROMENO[4,3-b]QUINOLINE], for which the melting point was 160 °C (dec.). Besides, at human ERβ, the half-maximal inhibitory concentration (IC50) was 31 nM and the “α/β receptor selectivity (ratio of ERα IC50 to ERβ IC50)” value is 18. The molecule also had an IC50 at human ERα of 548 nM.
In the case of `N#Cc1c2c(nc3ccc(O)cc13)-c1ccc(O)cc1OC2` [Cpd 12, 7-CYANO-3,9-DIHYDROXY-6H-CHROMENO[4,3-b]QUINOLINE], at human ERβ, the IC50 worked out at 5.6 nM and the “α/β receptor selectivity (ratio of ERα IC50 to ERβ IC50)” value was determined as 7. This molecule yielded an IC50 on human ERα of 40 nM.
In the case of `Oc1ccc2c(c1)OCc1c-2nc2ccc(O)cc2c1-c1cccc(Cl)c1` [Cpd 17, 7-(3-CHLOROPHENYL)-3,9-DIHYDROXY-6H-CHROMENO[4,3-b]QUINOLINE], the melting point is 162 to 165 °C (dec.). Besides, at human ERβ, the IC50 is 130 nM and the “α/β receptor selectivity (ratio of ERα IC50 to ERβ IC50)” value is 4. On human ERα, the IC50 amounted to 505 nM.
In the same order, the values of `CCc1c2c(nc3ccc(O)cc13)-c1ccc(O)cc1OC2` [Cpd 11, 3,9-DIHYDROXY-7-ETHYL-6H-CHROMENO[4,3-b]QUINOLINE] are 145 °C (dec.), 5 nM, 13 and 66 nM.
In the case of `Oc1ccc2c(c1)OCc1c-2nc2ccc(O)cc2c1Cl` [Cpd 6, 7-CHLORO-3,9-DIHYDROXY-6H-CHROMENO[4,3-b]QUINOLINE], the melting point was 235 °C (dec.). At human ERβ, the IC50 was 3.3 nM and the “α/β receptor selectivity (ratio of ERα IC50 to ERβ IC50)” value is given as 27. The molecule also gave a concentration for half-maximal inhibition (IC50) on human ERα of 88 nM.
Consider `COc1cccc(-c2c3c(nc4ccc(O)cc24)-c2ccc(O)cc2OC3)c1` [Cpd 18, 3,9-DIHYDROXY-7-(3-METHOXYPHENYL)-6H-CHROMENO[4,3-b]QUINOLINE], for which the melting point is 155 to 158 °C (dec.). For the same molecule, at human ERβ, the IC50 stood at 86 nM and the “α/β receptor selectivity (ratio of ERα IC50 to ERβ IC50)” value is 10. Also, the IC50 at human ERα was 820 nM.
With `COc1ccc(-c2c3c(nc4ccc(O)cc24)-c2ccc(O)cc2OC3)cc1` [Cpd 15, 3,9-DIHYDROXY-7-(4-METHOXYPHENYL)-6H-CHROMENO[4,3-b]QUINOLINE], the melting point was 195 °C (dec.). At human ERβ, the IC50 came out at 61 nM and the “α/β receptor selectivity (ratio of ERα IC50 to ERβ IC50)” value worked out at 6. The same molecule came in with an IC50 on human ERα of 357 nM.
On the same counts, the results for `N#Cc1ccc(-c2c3c(nc4ccc(O)cc24)-c2ccc(O)cc2OC3)cc1` [Cpd 14, 7-(4-CYANOPHENYL)-3,9-DIHYDROXY-6H-CHROMENO[4,3-b]QUINOLINE] are 295 °C (dec.), 82 nM, 17 and 1420 nM.

What is called melting point is the temperature, or range, at which the solid turns liquid. As usually defined, the IC50 is the concentration needed to halve the response being measured.
